Measured values published in PMC8317135 (Journal of medicinal chemistry, 2021).
“Also recorded” adds a separate entry of the source. Where two headings read alike, the source gives them in different places.

Legend:
[1] = molecular target: hERG (Homo sapiens, UniProt Q12809); test: cell-based
[2] = tested on: eosinophils in the bronchoalveolar lavage fluid (BALF); test: Ovalbumin/Aspergillus protease mouse model of allergic asthma, BALF leukocytes; assay type: in vivo; conditions: 2 days post-challenge; for eosinophil counts in the BALF / efficacy in asthma model: 20 μmol kg^−1, i.p. prior to allergen challenge
[3] = tested on: CCI-induced mechano-allodynia; conditions: mouse; cited from earlier work
[4] = molecular target: T1, hP2Y14R (Homo sapiens, UniProt Q15391); conditions: for hP2Y14R affinity in words: hP2Y14R-expressing CHO cells, tracer 2
T1 sequence (Q15391 1-338): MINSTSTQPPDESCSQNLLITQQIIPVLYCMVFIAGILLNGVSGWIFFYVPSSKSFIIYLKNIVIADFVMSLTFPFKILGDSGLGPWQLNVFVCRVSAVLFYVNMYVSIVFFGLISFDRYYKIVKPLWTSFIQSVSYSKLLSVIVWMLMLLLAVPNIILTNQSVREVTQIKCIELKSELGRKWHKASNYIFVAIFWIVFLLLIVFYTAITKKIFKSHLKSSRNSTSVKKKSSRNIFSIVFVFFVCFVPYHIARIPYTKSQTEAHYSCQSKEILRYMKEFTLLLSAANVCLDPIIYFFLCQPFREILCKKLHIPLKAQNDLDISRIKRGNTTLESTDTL

[5] = Aqueous solubility
[6] = molecular target: T1, hP2Y14R; test: cell-based; conditions: IC50 / affinity at hP2Y14R (μM), hP2Y14R-expressing CHO cells, tracer 2
[7] = tested on: 46 receptors and channels; test: PDSP off-target radioligand binding screen; conditions: radioligand binding at 46 receptors and channels
[8] = molecular target: DOR (δ-opioid receptor) (Homo sapiens, UniProt P41143); test: PDSP radioligand binding, DOR
[9] = Lipophilicity based on HPLC retention time; assay type: physicochemical; conditions: relative to 1a
[10] = in vivo; conditions: male, Wistar, rat
[11] = not given; remark: listed apart in the source
[12] = tested on: CCI-induced mechano-allodynia; test: Chronic constriction injury; conditions: mouse
[13] = tested on: porcine liver esterase (PLE); test: Esterase cleavage of prodrugs by porcine liver esterase; conditions: for percent cleavage at 72 h: pH 7.3 aqueous medium, PLE, 37 °C; for half-life at 1 mM: pig, pH 7.3
[14] = male Wistar rats, 1.0 mg kg^−1 i.p.
[15] = male Wistar rats, 3.0 mg kg^−1 i.p.
[16] = male Wistar rats, 10 mg kg^−1 i.p.

Sequence of hERG (Q12809 whole entry): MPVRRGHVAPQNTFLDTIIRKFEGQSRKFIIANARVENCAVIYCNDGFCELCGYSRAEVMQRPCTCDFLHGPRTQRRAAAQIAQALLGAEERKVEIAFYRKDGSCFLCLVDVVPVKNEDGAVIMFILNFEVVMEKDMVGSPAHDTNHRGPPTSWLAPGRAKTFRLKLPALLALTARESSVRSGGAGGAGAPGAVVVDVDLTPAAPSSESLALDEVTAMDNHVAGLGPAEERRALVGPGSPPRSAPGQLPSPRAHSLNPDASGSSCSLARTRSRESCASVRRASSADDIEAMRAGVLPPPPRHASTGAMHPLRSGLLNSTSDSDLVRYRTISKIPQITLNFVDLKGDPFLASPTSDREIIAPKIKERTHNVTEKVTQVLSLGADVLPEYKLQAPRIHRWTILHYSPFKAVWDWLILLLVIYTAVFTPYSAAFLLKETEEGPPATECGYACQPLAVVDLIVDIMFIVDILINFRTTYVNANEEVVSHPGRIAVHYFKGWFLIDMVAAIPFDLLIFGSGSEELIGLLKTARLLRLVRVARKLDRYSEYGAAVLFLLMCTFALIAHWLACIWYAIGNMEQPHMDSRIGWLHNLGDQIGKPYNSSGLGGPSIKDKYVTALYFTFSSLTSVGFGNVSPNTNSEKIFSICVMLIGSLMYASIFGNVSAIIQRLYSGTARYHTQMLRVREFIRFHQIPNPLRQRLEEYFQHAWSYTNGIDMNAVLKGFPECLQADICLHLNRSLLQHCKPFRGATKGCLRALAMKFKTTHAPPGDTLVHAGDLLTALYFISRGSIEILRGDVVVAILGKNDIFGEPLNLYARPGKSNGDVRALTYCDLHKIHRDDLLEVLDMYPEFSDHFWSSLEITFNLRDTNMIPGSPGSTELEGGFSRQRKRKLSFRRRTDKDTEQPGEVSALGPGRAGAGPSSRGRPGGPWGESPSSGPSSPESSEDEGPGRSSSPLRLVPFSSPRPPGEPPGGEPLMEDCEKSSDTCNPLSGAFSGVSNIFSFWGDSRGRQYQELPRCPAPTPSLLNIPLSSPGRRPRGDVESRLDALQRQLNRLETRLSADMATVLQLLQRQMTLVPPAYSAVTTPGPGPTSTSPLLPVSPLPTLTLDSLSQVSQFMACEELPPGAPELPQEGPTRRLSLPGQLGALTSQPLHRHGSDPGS
Sequence of DOR (δ-opioid receptor) (P41143 whole entry): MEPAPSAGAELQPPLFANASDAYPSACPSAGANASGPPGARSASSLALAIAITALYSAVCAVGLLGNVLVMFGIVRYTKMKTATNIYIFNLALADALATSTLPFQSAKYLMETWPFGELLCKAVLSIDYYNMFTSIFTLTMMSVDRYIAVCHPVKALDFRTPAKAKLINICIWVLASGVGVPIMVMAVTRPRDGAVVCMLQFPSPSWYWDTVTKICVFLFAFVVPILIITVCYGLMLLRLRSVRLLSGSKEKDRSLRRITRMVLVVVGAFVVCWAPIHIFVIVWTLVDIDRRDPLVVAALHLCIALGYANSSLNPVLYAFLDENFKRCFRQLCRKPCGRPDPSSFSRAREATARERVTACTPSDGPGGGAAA

O=C(O)c1cc(-c2ccc(C3CCNCC3)cc2)c2ccc(-c3ccc(C(F)(F)F)cc3)cc2c1 [Compound 1a, 4-[4-(4-piperidinyl)phenyl]-7-[4-(trifluoromethyl)phenyl]-2-naphthalene-carboxylic acid]
IC50 [1]: > 30 µM | solubility in DMSO at 20 mg mL^−1: could not dissolve | eosinophil counts in the BALF / efficacy in asthma model [2]: reduced | effect on chronic pain in the CCI model [3]: effective in reducing chronic pain

CC(=O)N1CCC(c2ccc(-c3cc(C(=O)O)cc4cc(-c5ccc(C(F)(F)F)cc5)ccc34)cc2)CC1 [Compound 1b, reference compound]
eosinophil counts in the BALF / efficacy in asthma model [2]: no significant reduction | effect on chronic pain in the CCI model [3]: effective in reducing chronic pain

CC(=O)Nc1ccc(-c2cc(C(=O)O)cc(-n3cc(-c4ccc(C(F)(F)F)cc4)nn3)c2)cc1 [Compound 8, 4′-Acetamido-5-(4-(4-(trifluoromethyl)phenyl)-1H-1,2,3-triazol-1-yl)-[1,1′-biphenyl]-3-carboxylic Acid]
hP2Y14R affinity in words [4]: submicromolar affinity

O=C(O)c1cc(-c2ccc(NC(=O)C3CCNCC3)cc2)cc(-n2cc(-c3ccc(C(F)(F)F)cc3)nn2)c1 [Compound 11, 4′-(Piperidine-4-carboxamido)-5-(4-(4-(trifluoromethyl)phenyl)-1H-1,2,3-triazol-1-yl)-[1,1′-biphenyl]-3-carboxylic Acid]
solubility in aqueous medium in words [5]: poorly soluble in aqueous medium

CC(C)(C)OC(=O)N1CCC(C(=O)Nc2ccc(-c3cc(C(=O)O)cc(-n4cc(-c5ccc(C(F)(F)F)cc5)nn4)c3)cc2)CC1 [Compound 12, 4′-(1-(tert-Butoxycarbonyl)piperidine-4-carboxamido)-5-(4-(4-(trifluoromethyl)phenyl)-1H-1,2,3-triazol-1-yl)-[1,1′-biphenyl]-3-carboxylic Acid]
fold weaker in binding than the parent amines ([4]; N-Boc protected forms compared to 11 and 18): > 100 fold

O=C(O)c1ccc(-c2cc(C(=O)O)cc(-n3cc(-c4ccc(C(F)(F)F)cc4)nn3)c2)cc1 [Compound 13, 5-(4-(4-(Trifluoromethyl)phenyl)-1H-1,2,3-triazol-1-yl)-[1,1′-bi-phenyl]-3,4′-dicarboxylic Acid]
IC50 [6]: ~0.6 µM | off-target interactions in the standard PDSP screen [7]: did not show any off-target interactions

NCCCNC(=O)c1ccc(-c2cc(C(=O)O)cc(-n3cc(-c4ccc(C(F)(F)F)cc4)nn3)c2)cc1 [Compound 14, 4′-((3-Aminopropyl)carbamoyl)-5-(4-(4-(trifluoromethyl)-phenyl)-1H-1,2,3-triazol-1-yl)-[1,1′-biphenyl]-3-carboxylic Acid]
fold lower affinity than thienyl derivative 4 ([4]; compared to 4): 3.5 fold | hP2Y14R affinity in words [4]: submicromolar affinity

NCCCc1ccc(-c2cc(C(=O)O)cc(-n3cc(-c4ccc(C(F)(F)F)cc4)nn3)c2)cc1 [Compound 18, 4′-(3-Aminopropyl)-5-(4-(4-(trifluoromethyl)phenyl)-1H-1,2,3-triazol-1-yl)-[1,1′-biphenyl]-3-carboxylic Acid]
hP2Y14R affinity in words [4]: submicromolar affinity | off-target interactions in the standard PDSP screen [7]: did not show any off-target interactions

NCC#Cc1ccc(-c2cc(C(=O)O)cc(-n3cc(-c4ccc(C(F)(F)F)cc4)nn3)c2)cc1 [Compound 19, 4′-(3-Aminoprop-1-yn-1-yl)-5-(4-(4-(trifluoromethyl)phenyl)-1H-1,2,3-triazol-1-yl)-[1,1′-biphenyl]-3-carboxylic Acid]
hP2Y14R affinity in words [4]: submicromolar affinity | off-target interactions in the standard PDSP screen [7]: did not show any off-target interactions

O=C(O)c1cc(-c2ccc(CCCCO)cc2)cc(-n2cc(-c3ccc(C(F)(F)F)cc3)nn2)c1 [Compound 21, 4′-(4-Hydroxybutyl)-5-(4-(4-(trifluoromethyl)phenyl)-1H-1,2,3-triazol-1-yl)-[1,1′-biphenyl]-3-carboxylic Acid]
hP2Y14R affinity in words [4]: bound weakly

O=C(O)c1cc(-c2ccc(-c3cc(CO)on3)cc2)cc(-n2cc(-c3ccc(C(F)(F)F)cc3)nn2)c1 [Compound 29, 4′-(5-(Hydroxymethyl)isoxazol-3-yl)-5-(4-(4-(trifluoromethyl)-phenyl)-1H-1,2,3-triazol-1-yl)-[1,1′-biphenyl]-3-carboxylic Acid]
hP2Y14R affinity in words [4]: submicromolar affinity | Ki [8]: 6.9 ± 1.9 µM | hydrophilicity gain compared to 1a [9]: −1.06 cLogP units

O=C(O)c1cc(-c2ccc(-c3nnn[nH]3)cc2)cc(-n2cc(-c3ccc(C(F)(F)F)cc3)nn2)c1 [Compound 31, 4′-(1H-Tetrazol-5-yl)-5-(4-(4-(trifluoromethyl)phenyl)-1H-1,2,3-triazol-1-yl)-[1,1′-biphenyl]-3-carboxylic Acid]
hP2Y14R affinity in words [4]: submicromolar affinity

O=C(O)c1cc(-c2ccc(-c3cc(CO)on3)cc2)c2ccc(-c3ccc(C(F)(F)F)cc3)cc2c1 [Compound 32, 4-(4-(5-(Hydroxymethyl)isoxazol-3-yl)phenyl)-7-(4-(trifluoromethyl)phenyl)-2-naphthoic Acid]
AUC(0-t) at 24 h ([10]; ip, 1 mg/kg): 650 ng·h/mL | Cmax at 24 h ([10]; ip, 1 mg/kg): 88.4 ng/mL | half-life ([10]; ip, 1 mg/kg): 7.23 h | AUC(0-inf) at 24 h ([10]; ip, 3 mg/kg): 2120 ng·h/mL | AUC(0-t) at 24 h ([10]; ip, 3 mg/kg): 2060 ng·h/mL | Cmax at 24 h ([10]; ip, 3 mg/kg): 315 ng/mL | half-life at 24 h ([10]; ip, 3 mg/kg): 4.68 h | AUC(0-inf) at 24 h ([10]; ip, 10 mg/kg): 4920 ng·h/mL | AUC(0-t) at 24 h ([10]; ip, 10 mg/kg): 4900 ng·h/mL | Cmax at 24 h ([10]; ip, 10 mg/kg): 786 ng/mL | half-life at 24 h ([10]; ip, 10 mg/kg): 2.98 h | AUC(0-inf) at 24 h ([10]; iv, 0.5 mg/kg): 238 ng·h/mL | AUC(0-t) at 24 h ([10]; iv, 0.5 mg/kg): 234 ng·h/mL | Cmax at 24 h ([10]; iv, 0.5 mg/kg): 359 ng/mL | Vd at 24 h ([10]; iv, 0.5 mg/kg): 2.09 L/kg | clearance at 24 h ([10]; iv, 0.5 mg/kg): 35.2 mL/min/kg | half-life at 24 h ([10]; iv, 0.5 mg/kg): 0.689 h | clinical signs ([11]; all rat groups at all time points (up to 24 h)): normal | Kel (1 h^−1) ([11]; male Wistar rats, 0.5 mg kg^−1 i.v.): 1.01 1 h^−1 | Cl [11, 14]: 23.83 mL/min/kg | Kel (1 h^−1) [11, 14]: 0.096 1 h^−1 | Vd (mL kg^−1) [11, 14]: 14,900 mL kg^−1 | Cl [11, 15]: 23.67 mL/min/kg | Kel (1 h^−1) [11, 15]: 0.148 1 h^−1 | Vd [11, 15]: 9.57 L/kg | Cl [11, 16]: 33.83 mL/min/kg | Kel (1 h^−1) [11, 16]: 0.233 1 h^−1 | Vd [11, 16]: 8.73 L/kg | peak concentration ([11]; rat, 10 mg kg^−1, i.p., 4 h post-injection): 1.61 µM | eosinophil counts in the BALF / efficacy in asthma model [2]: no significant reduction | maximal reversal of CCI-induced mechano-allodynia ([12]; 10 μmol kg^−1 (4.9 mg kg^−1), i.p., 1 h post-injection): 71.0 ± 17.4% | side effects ([12]; 10 μmol kg^−1, i.p.): No side effects were evident | protection against CCI-induced mechano-allodynia at 3 or 5 h ([12]; 10 μmol kg^−1, i.p., 3 or 5 h post-injection): not statistically significant | hydrophilicity gain compared to 1a [9]: −0.80 cLogP units

CN(C)C(=O)COC(=O)c1cc(-c2ccc(C3CCNCC3)cc2)cc(-n2cc(-c3ccc(C(F)(F)F)cc3)nn2)c1 [Compound 37a, 2-(Dimethylamino)-2-oxoethyl 4′-(Piperidin-4-yl)-5-(4-(4-(trifluoromethyl)phenyl)-1H-1,2,3-triazol-1-yl)-[1,1′-biphenyl]-3-carboxylate]
eosinophil counts in the BALF / efficacy in asthma model [2]: lack of in vivo activity | lymphocyte count in the BALF ([2]; 20 μmol kg^−1, i.p.): trended higher than in a vehicle control | number of off-target interactions in the μM range [7]: 18 | off-target interactions in the standard PDSP screen [7]: promiscuous in off-target binding

CN(C)C(=O)COC(=O)c1cc(-c2ccc(-c3cc(CO)on3)cc2)c2ccc(-c3ccc(C(F)(F)F)cc3)cc2c1 [Compound 37b, 2-(Dimethylamino)-2-oxoethyl 4-(4-(5-(Hydroxymethyl)isoxazol-3-yl)phenyl)-7-(4-(trifluoromethyl)phenyl)-2-naphthoate]
eosinophil counts in the BALF / efficacy in asthma model [2]: significantly reduced eosinophils; also recorded: highly efficacious | percent cleavage at 72 h [13]: < 50% | half-life at 1 mM [13]: > 1.2 h

CC(=O)N1CCC(c2ccc(-c3cc(C(=O)OCC(=O)N(C)C)cc4cc(-c5ccc(C(F)(F)F)cc5)ccc34)cc2)CC1 [Compound 37c, 2-(Dimethylamino)-2-oxoethyl 4-(4-(1-Acetylpiperidin-4-yl)-phenyl)-7-(4-(trifluoromethyl)phenyl)-2-naphthoate]
eosinophil counts in the BALF / efficacy in asthma model [2]: significantly reduced eosinophils; also recorded: highly efficacious | percent cleavage at 72 h [13]: < 50% | half-life at 1 mM [13]: > 1.2 h
